These results are taken from patent US20230106032A1, “IMIDAZOTRIAZINES ACTING ON CANCER VIA INHIBITION OF CDK12” (Bayer Aktiengesellschaft, priority 2020, published 2023).

Experiment [1] relates to CAL-120 human breast adenocarcinoma cells. Nature of the experiment: Proliferation assay CAL-120 (crystal violet). Particulars: 96 h, CAL-120 cells, 4 days, read-out: Prolif-CAL-120_ IC50-[mol/l] (median). The format is cell-based. As to the method: Human tumour cells were originally obtained from the American Type Culture Collection (ATCC), or from the Deutsche Sammlung von Mikroorganismen und Zellkulturen (DSMZ, German Collection of Microorganisms and Cell Cultures). Cultivated tumour cells (CAL-120, human breast adenocarcinoma cells, DSMZ ACC-459; MDA-MB-231, human breast cancer cells, ATCC HTB-26) were plated at a density of 4,000 cells/well in a 96-well multititer plate in 200 microL of their respective growth medium supplemented 10% fetal calf serum. After 24 hours, the cells of one plate (zero-point plate) were stained with crystal violet (see below), while the medium of the other plates was supplemented with the test substances in various concentrations (0 micromol/L, as well as in the range of 0.01-10 micromol/L; the final concentration of the solvent dimethyl sulfoxide was adjusted to 0.1%) using a Tecan HP D300 Digital Dispenser. The cells were incubated for 4 days in the presence of test substances. Cell proliferation was determined by staining the cells with crystal violet: the cells were fixed by adding 20 microL/measuring point of an 11% glutaric aldehyde solution for 15 minutes at room temperature. After three washing cycles of the fixed cells with water, the plates were dried at room temperature. The cells were stained by adding 100 microL/measuring point of a 0.1% crystal violet solution (pH 3.0). After three washing cycles of the stained cells with water, the plates were dried at room temperature. The dye was dissolved by adding 100 microL/measuring point of a 10% acetic acid solution. The extinction was determined by photometry at a wavelength of 595 nm. The change of cell number, in percent, was calculated by normalization of the measured values to the extinction values of the zero-point plate (=0%) and the extinction of the untreated (0 μM) cells (=100%). The IC50 values (inhibitory concentration at 50% of maximal effect) were determined by means of a 4 parameter fit.

For a further experiment, the target named is T1, CDK12/CycK (Homo sapiens, UniProt Q9NYV4).
T1 construct: His-CDK12 (aa Q696-S1082); made in house; host or cells: Hi-5 insect cells (baculovirus co-infection with CAK1)
In words: CDK12/CycK high ATP kinase assay (TR-FRET, 2 mM ATP). The format is biochemical. Particulars: read-out: CDK12/CyclinK, 2 mM ATP (high ATP), IC50-[mol/l] (median). The source says: In the context of the present invention, the term “IC50 CDK12 hATP” refers to the IC50 values obtained according to the assay described in this section (2.2) herein below, i.e. the IC50 values for the inhibition of CDK12 at high ATP.
CDK12/CycK-inhibitory activity of compounds of the present invention at 2 millimol/L adenosine-tri-phosphate (ATP) was quantified employing the TR-FRET (TR-FRET=Time Resolved Fluorescence Energy Transfer) based CDK12/CycK activity inhibition assay as described in the following paragraphs.
A complex of human recombinant CDK12 and human recombinant CycK (both N-terminally His-tagged, expression and purification as described above) was used as enzyme. As substrate for the kinase reaction biotinylated peptide biotin-Ahx-KFELLPTPPLSPSRRSGL (C-terminus in amid form) was used which can be purchased e.g. form the company Biosyntan (Berlin-Buch, Germany).
For the assay 50 nanoL of a 100 fold concentrated solution of the test compound in DMSO was pipetted into either a black low volume 384 well microtiter plate or a black 1536 well microtiter plate (both Greiner Bio-One, Frickenhausen, Germany), 2 microL of a solution of CDK12/CycK in aqueous assay buffer [25 millimol/L HEPES pH 7.5, 20 millimol/L MgCl2, 5 millimol/L ß-glycerophosphate, 2 millimol/L EGTA, 1.0 millimol/L dithiothreitol, 0.01% (v/v) Nonidet-P40 (Sigma), 0.01% (w/v) bovine serum albumin] were added and the mixture was incubated for 15 min at 22° C. to allow pre-binding of the test compounds to the enzyme before the start of the kinase reaction. Then the kinase reaction was started by the addition of 3 microL of a solution ATP (3.33 millimol/L=> final conc. in the 5 microL assay volume is 2 millimol/L) and substrate (1.67 micromol/L=> final conc. in the 5 microL assay volume is 1 micromol/L) in assay buffer and the resulting mixture was incubated for a reaction time of 60 min at 22° C. The concentration of CDK12/CycK was adjusted depending of the activity of the enzyme lot and was chosen appropriate to have the assay in the linear range, typical concentrations were about 0.75 nanomol/L. The reaction was stopped by the addition of 3 microL of a solution of TR-FRET detection reagents (125 nanomol/L streptavidine-XL665 [Cisbio Bioassays, Codolet, France] and 0.67 nanomol/L anti-Phospho-c-Myc (Ser 62) (E1J4K)-antibody from Cell Signalling [#13748] and 2 nanomol/L LANCE EU-W1024 labeled anti-rabbit IgG antibody [Perkin-Elmer, product no. 0083]) in an aqueous EDTA-solution (133 millimol/L EDTA, 0.27% (w/v) bovine serum albumin in 66.7 millimol/L HEPES pH 7.5).
The resulting mixture was incubated 1 h at 22° C. to allow the formation of complex between the phosphorylated biotinylated peptide and the detection reagents. Subsequently the amount of phosphorylated substrate was evaluated by measurement of the resonance energy transfer from the Eu-chelate to the streptavidine-XL. Therefore, the fluorescence emissions at 620 nm and 665 nm after excitation at 350 nm was measured in a TR-FRET reader, e.g. a Pherastar FS (BMG Labtechnologies, Offenburg, Germany) or a Viewlux (Perkin-Elmer). The ratio of the emissions at 665 nm and at […] was taken as the measure for the amount of phosphorylated substrate. The data were normalised (enzyme reaction without inhibitor=0% inhibition, all other assay components but no enzyme=100% inhibition).
In general terms: TR-FRET usually uses a lanthanide donor and a delayed reading to cut background.

T1 sequence (Q9NYV4 with tags, fused parts or gaps): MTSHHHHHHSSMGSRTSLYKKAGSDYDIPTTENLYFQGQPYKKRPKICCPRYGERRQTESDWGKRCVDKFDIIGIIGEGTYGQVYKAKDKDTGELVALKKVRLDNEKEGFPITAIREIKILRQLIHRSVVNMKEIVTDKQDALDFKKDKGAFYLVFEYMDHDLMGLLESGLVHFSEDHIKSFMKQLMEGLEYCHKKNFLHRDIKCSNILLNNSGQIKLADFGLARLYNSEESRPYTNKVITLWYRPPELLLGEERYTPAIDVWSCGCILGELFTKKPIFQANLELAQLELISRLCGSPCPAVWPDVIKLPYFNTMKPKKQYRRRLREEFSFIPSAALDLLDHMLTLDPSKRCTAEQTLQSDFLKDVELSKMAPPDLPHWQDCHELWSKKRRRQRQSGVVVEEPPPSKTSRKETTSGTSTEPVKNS
T1 sequence (O75909 with tags, fused parts or gaps partner limits assumed): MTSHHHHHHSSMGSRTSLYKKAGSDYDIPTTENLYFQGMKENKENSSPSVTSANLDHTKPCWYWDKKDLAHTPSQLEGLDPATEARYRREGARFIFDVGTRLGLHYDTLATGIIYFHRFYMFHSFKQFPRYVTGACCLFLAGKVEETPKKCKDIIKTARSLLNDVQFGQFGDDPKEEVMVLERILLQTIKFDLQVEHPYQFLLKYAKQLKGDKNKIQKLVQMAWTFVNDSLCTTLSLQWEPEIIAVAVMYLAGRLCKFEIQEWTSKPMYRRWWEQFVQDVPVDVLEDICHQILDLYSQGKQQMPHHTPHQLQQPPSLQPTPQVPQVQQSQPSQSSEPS

`Fc1ccc2[nH]c(CNc3nc(N4CCNCC4)nn4c(Br)cnc34)nc2c1F` [Example 10, 7-bromo-N-[(4,5-difluoro-1H-benzimidazol-2-yl)methyl]-2-(piperazin-1-yl)imidazo[2,1-f][1,2,4]triazin-4-amine]: the IC50 was 0.859 nM in experiment [1] and 1370 nM at CDK12/CycK.

With `COc1cccc2[nH]c(CNc3nc(N4CCOCC4)nn4c(Br)cnc34)nc12` [Example 13, 7-bromo-N-[(4-methoxy-1H-benzimidazol-2-yl)methyl]-2-(morpholin-4-yl)imidazo[2,1-f][1,2,4]triazin-4-amine], the IC50 stood at 12.3 nM in experiment [1] and 1330 nM on CDK12/CycK.

Turning to `C[C@@H]1CN(c2nc(NCc3nc4ccccc4[nH]3)c3ncc(Br)n3n2)C[C@H](C)N1` [Example 9, N-[(1H-benzimidazol-2-yl)methyl]-7-bromo-2-[rel-(3R,5S)-3,5-dimethylpiperazin-1-yl]imidazo[2,1-f][1,2,4]triazin-4-amine], the IC50 in experiment [1] came to 2.04 nM; at CDK12/CycK, 4900 nM.

Take `CN(CC(C)(C)O)c1nc(NCc2nc3ccccc3[nH]2)c2ncc(C(F)(F)F)n2n1` [Example 30, 1-[{4-[(1H-benzimidazol-2-ylmethyl)amino]-7-(trifluoromethyl)imidazo[2,1-f][1,2,4]triazin-2-yl}(methyl)amino]-2-methylpropan-2-ol]: the IC50 amounted to 9.95 nM in experiment [1] and 163 nM on CDK12/CycK.

For `CN1CCN(c2nc(NCc3nc4cc(F)ccc4[nH]3)c3ncc(Br)n3n2)CC1` [Example 21, 7-bromo-N-[(5-fluoro-1H-benzimidazol-2-yl)methyl]-2-(4-methylpiperazin-1-yl)imidazo[2,1-f][1,2,4]triazin-4-amine], the IC50 worked out at 4.82 nM in experiment [1] and 16500 nM on CDK12/CycK.

Take `COc1cccc2[nH]c(CNc3nc(N4CCNCC4)nn4c(Br)cnc34)nc12` [Example 15, 7-bromo-N-[(4-methoxy-1H-benzimidazol-2-yl)methyl]-2-(piperazin-1-yl)imidazo[2,1-f][1,2,4]triazin-4-amine]: the IC50 in experiment [1] was determined as 3.05 nM; on CDK12/CycK it was 2090 nM.

Take `C[C@@H]1CN(c2nc(NCc3nc4ccccc4[nH]3)c3ncc(Br)n3n2)C[C@H](C)O1` [Example 4, N-[(1H-benzimidazol-2-yl)methyl]-7-bromo-2-[rel-(2R,6S)-2,6-dimethylmorpholin-4-yl]imidazo[2,1-f][1,2,4]triazin-4-amine]: the IC50 in experiment [1] amounted to 53.8 nM; at CDK12/CycK, 990 nM.

Regarding `CN1CCN(c2nc(NCc3nc4c(F)cccc4[nH]3)c3ncc(Br)n3n2)CC1` [Example 23, 7-bromo-N-[(4-fluoro-1H-benzimidazol-2-yl)methyl]-2-(4-methylpiperazin-1-yl)imidazo[2,1-f][1,2,4]triazin-4-amine], the IC50 in experiment [1] turned out to be 14.2 nM; at CDK12/CycK it was 10800 nM.

Take `C[C@@H]1CN(c2nc(NCc3nc4c(F)c(F)ccc4[nH]3)c3ncc(C(F)(F)F)n3n2)C[C@H](C)N1` [Example 29, N-[(4,5-difluoro-1H-benzimidazol-2-yl)methyl]-2-[rel-(3R,5S)-3,5-dimethylpiperazin-1-yl]-7-(trifluoromethyl)imidazo[2,1-f][1,2,4]triazin-4-amine]: the IC50 was 0.536 nM in experiment [1] and 40.5 nM on CDK12/CycK.

On to `CN1CCN(c2nc(NCc3nc4c(F)c(F)ccc4[nH]3)c3ncc(C(F)(F)F)n3n2)CC1` [Example 28, N-[(4,5-difluoro-1H-benzimidazol-2-yl)methyl]-2-(4-methylpiperazin-1-yl)-7-(trifluoromethyl)imidazo[2,1-f][1,2,4]triazin-4-amine], for which the values for the IC50 (in experiment [1]; on CDK12/CycK) were 1.99 nM and 1680 nM, respectively.

Regarding `FC(F)(F)c1cnc2c(NCc3nc4ccccc4[nH]3)nc(N3CCOCC3)nn12` [Example 26, N-[(1H-benzimidazol-2-yl)methyl]-2-(morpholin-4-yl)-7-(trifluoromethyl)imidazo[2,1-f][1,2,4]triazin-4-amine], the IC50 was determined as 7.11 nM in experiment [1] and 172 nM on CDK12/CycK.

For `C[C@@H]1CN(c2nc(NCc3nc4ccccc4[nH]3)c3ncc(C(F)(F)F)n3n2)C[C@H](C)N1.O=CO` [Example 24, N-[(1H-benzimidazol-2-yl)methyl]-2-[rel-(3R,5S)-3,5-dimethylpiperazin-1-yl]-7-(trifluoromethyl)imidazo[2,1-f][1,2,4]triazin-4-amine Formate (1/1)], the figures for the IC50 (in experiment [1]; at CDK12/CycK) were 1.2 nM and 737 nM, respectively.
